Patent US20250354999A1, “BIOMARKERS OF LYSOSOMAL STORAGE DISEASE” (Genzyme Corporation, priority 2022, published 2025)
“Also recorded” adds a separate entry of the source.

Experiments:
Assay type in all cases: in vivo, human
CD63 [1] = assay: CD63 level in CSF of type 3 Gaucher disease patients on treatment (Olink Explore; LEAP trial); conditions: GD3 patients, baseline, 26 weeks and 52 weeks on combination treatment of venglustat and imiglucerase
Method: For the measurement of protein levels in CSF, the following protocol was employed: Biomarker expression in CSF was measured using four Olink® Explore panels (Cardiometabolic, Inflammation, Neurology, and Oncology), as described, e.g., by Wik et al. (“Proximity Extension Assay in Combination with NextGeneration Sequencing for High-throughput Proteome-wide Analysis, 2021, Mol Cell Proteomics 20, 100168). Briefly, 10 μL of CSF samples and Olink controls were placed into a 384-well Sample Source Plate and then diluted 1:10, 1:100, 1:1000 and 1:100,000 in 384-well Sample Diluent Plates using Mosquito and Dragonfly liquid handlers (both from SPT Labtech). For immunoreaction, these diluted samples were mixed with the Olink® probes (DNA oligo-conjugated antibodies) in 384-well Incubation Plates using the Mosquito handler and incubated at 4° C. for 16-24 hours. The following day, reagent mixtures for the first PCR amplification step (PCR1 step) were added to the immunoreaction mixtures using the Dragonfly handler, and PCR1 reaction for the pre-amplification step was conducted using ProFlex PCR System (Applied Biosciences). […] The four libraries were analyzed by Next Generation Sequencing using NovaSeq 6000 (Illumina). […]

CD63 [2] = assay: CD63 level in plasma of Fabry patients on treatment (Olink profiling; Sanofi-Venglustat Phase II ACT/LTS trial)
Method: CD63 was measured by Olink® profiling, as described below, using the Olink® Target96 Neuro-Exploratory panel (Olink Proteomics AB, Uppsala, Sweden) according to the manufacturer's instructions.
Protein detection can be performed using Olink® (Olink Proteomics AB, Uppsala, Sweden) profiling in accordance with the manufacturer's recommended protocols (for exemplary methods, see, e.g., Assarsson et al., PLoS ONE (2014) 9(4):e95192; and Jabbari et al., Journal of Neurology, Neurosurgery & Psychiatry (2019) 90:768-773). The Proximity Extension Assay (PEA) technology used for the Olink® protocol has been well described (Assarsson et al., 2014, supra), and enables 92 analytes per panel to be analysed simultaneously, using 1 μL of each sample. In brief, pairs of oligonucleotide-labelled antibody probes bind to their targeted protein, and if the two probes are brought in close proximity the oligonucleotides will hybridize in a pair-wise manner. The addition of a DNA polymerase leads to a proximity-dependent DNA polymerization event, generating a unique PCR target sequence. The resulting DNA sequence can subsequently be detected and quantified using a microfluidic real-time PCR instrument (Biomark HD, Fluidigm). Data is then quality controlled and normalized using an internal extension control and an inter-plate control, to adjust for intra- and inter-run variation. The final assay read-out is presented in Normalized Protein expression (NPX) values, which is an arbitrary unit on a log 2-scale where a high value corresponds to a higher protein expression. All assay validation data (e.g., detection limits, intra- and inter-assay precision data, etc.), experimental protocols, and data processing are available on the manufacturer's website (www.olink.com).
The ACT/LTS samples were taken from the Sanofi-Venglustat Phase II trial. This trial consisted only of male patients. The Sanofi-Venglustat Phase II trial was a longitudinal study, and patient plasma was collected at 6 set intervals: Baseline (0 weeks), 12 weeks, 26 weeks, 52 weeks, 104.2 weeks, and 156.4 weeks. There are missing timepoints for some patients. During this trial, all patients were treated with venglustat (a substrate reduction therapy-SRT).
Cohort 1 is a collection of plasma samples provided by Dr. Gavin Oudit from the University of Alberta. Briefly, these plasma samples were from a mix of male and female patients with ages ranging from 25 to 68. They were non-longitudinal samples (e.g. 1 sample per patient), and the plasma samples were a mix of treated Fabry patients (enzyme replacement therapy-ERT), untreated Fabry patients, and healthy control subjects.
Cohort 2 is a collection of plasma samples provided by Dr. Michael Mauer from the University of Minnesota. […]

GL3 = GL3 level in plasma of Fabry patients on venglustat (ESI-LC-MS/MS); conditions: Fabry disease patients, venglustat clinical trial over time
Method: (§1) Glycosphingolipids (lyso-GL1, GL3, and lyso-GL3) were measured by ESI-LC-MS/MS according to the method described in Murugesan et al., Am J Hematol. (2016) 91(11):1082-1089. In brief, 20 μL aliquots of plasma were added to 1 mL of chloroform:methanol (2:3) in an Eppendorf tube, mixed and then centrifuged. Supernatant was removed and extracted with chloroform (220 μL) and water (520 μL) by mixing and centrifugation. The upper phase was re-extracted with chloroform and added to the lower phase. The combined sample was dried, resuspended in 100 μL methanol:water (9:1) and injected into an LC-MS/MS system for tandem mass spectroscopic analysis. Separation of glycosphingolipids and other matrix components was achieved using UPLC under gradient conditions with two mobile phases: 0.1% formic acid in water; and 0.1% formic acid in acetonitrile. Mass spectrometry (MS) was performed in select ion monitoring mode, typically using the parent (M+H^+) ion transition (e.g. m/z 462.5>282.4 for lyso-GL1). Assays were calibrated using known glycosphingolipid standards (dimethylpsychosine, 13C6-labelled lyso-GL3 (GelbChem), and C17-GL3 (Matreya LLC, cat no. 1523) as internal standards for lyso-GL1, lyso-GL3, and GL3 respectively).
(§2) The ACT/LTS samples were taken from the Sanofi-Venglustat Phase II trial. This trial consisted only of male patients. […]

lyso-GL3 = lyso-GL3 level in plasma of Fabry patients on venglustat (ESI-LC-MS/MS)
Method: as §1, §2

[3] = Fabry disease patients vs healthy controls, during the trial period

## CC(C)(NC(=O)O[C@@H]1CN2CCC1CC2)c1csc(-c2ccc(F)cc2)n1 [venglustat, (3S)-1-azabicyclo[2.2.2]octan-3-yl N-{2-[2-(4-fluorophenyl)-1,3-thiazol-4-yl]propan-2-yl}carbamate]
CD63 [1]
  change of CD63 levels in CSF on treatment: consistently led to a decrease in CD63 levels
CD63 [2]; [3]
  return of CD63 to control levels: do not return to control levels during the trial period
CD63 [2]; Fabry disease patients, baseline to 156.4 weeks on treatment
  response of CD63 to treatment: decrease over a period of 30 months towards a healthy level; also recorded: show a response to treatment
CD63 [2]; Fabry disease patients, venglustat treatment
  time at which CD63 response to treatment is observed: 12 weeks
CD63 [2]; Fabry disease patients, venglustat treatment, baseline to 156 weeks
  first significant decrease in CD63 (estimated marginal mean, log 2): ≤ 26 week
GL3
  response of GL3 to treatment: show a response to treatment
lyso-GL3; [3]
  return of lyso-GL3 to control levels: do not return to control levels during the trial period
lyso-GL3; Fabry disease patients, venglustat clinical trial over time
  response of lyso-GL3 to treatment: show a response to treatment
